Measured values taken from patent publication US20110152379A1, “COMPOSITION FOR CONTROL OF AGING AND/OR EXTENSION OF LIFE, CONTAINING DAPSONE AS ACTIVE INGREDIENT” (priority 2008, published 2011).

Legend:
[1] = test system: mitochondria superoxide anion; assay: Superoxide anion in mitochondria, MitoSOX Red; type: cell-based; conditions: human diploid fibroblast; 1 mM PQ 30 minutes; FIG. 24B
Experimental: The cell was treated with 1 mM of PQ for 30 minutes, and then was cultured at 37° C. for 15 minutes after adding oxidant-sensitive fluorescent dyes (A) DHE (5 uM, cytosol specific) and (B) MitoSOX (5 uM, mitochondria specific), respectively. For identifying the change of fluorescence, the excitation and emission wavelength of DHE were measured at 515 and 590 nm and MitoSOX was measured at 520 and 580 nm by using a multiwell plate reader. The results were indicated by calculating the results of three experiments as a control rate (%). The statistical significant was expressed as *, # p<0.005; ** p<0.05.
Mitochondria superoxide anion was measured by using the fluorescence material, i.e., MitoSOX Red. […] The cell was twice washed with DPBS and the fluorescence was immediately measured at excitation wavelength 515 nm and emission wavelength 590 nm by using CEFS [Cary Eclipse fluorescence spectrophotometer (Varian, Calif., USA)] machine.

calcium = assay: Calcium amount in a cell, Fluo-4; type: cell-based; conditions: human diploid fibroblast, 1 mM PQ, FIG. 27
Experimental: HDF cell was cultured at 96-well plate and the calcium in cell was measured by using Fluo-4AM. […] The amount of Calcium in a cell was measured by using Fluo-4 (5 uM) that is a fluorescent material for labeling calcium and is well passed through a cell. The cell was cultured at 37° C. for 30 minutes and then maintained at a room temperature for 30 minutes without light in order for a complete de-esterification of AM ester in a cell: The fluorescent material that was left was removed except a cell by using HBSS containing 20 mM of HEPES (pH 7.4), and 100 ul of HBSS was added into wells containing cells, respectively. The fluorescent signal was measured at 494 nm for the excitation wavelength and 516 nm for the emission wavelength by using the multi-well fluorescence plate Eclipse fluorescence spectrophotometer (Varian, Calif., USA). The result was shown as Relative fluorescence units (RFUs).

human diploid fibroblast = assay: Growth suppression of human diploid fibroblast by DDS (data not shown); type: cell-based; conditions: read-out: DDS concentration that can suppress 50% growth of human diploid fibroblast (1050)
[2] = test system: membrane potential of mitochondria; assay: Membrane potential of mitochondria, DiOC6 assay; type: cell-based, human; conditions: pretreated with DDS (3 hours) or DPI (30 minutes), then 1 mM PQ 24 hours; FIG. 29B
Experimental: The protein amount of mitochondria constituent complex was measured by using Western Blot using Complex I (20 kDa ND6 subunit), Complex II (30 kDa FeS, non-heme iron protein, SDHB), Complex III (47 kDa core protein 2), Complex IV (18 kDa subunit IV), Complex V (55 kDa subunit a ATP synthase), and the like. […] The membrane potential (Δψm) of mitochondria used DiOC6. […] Since then, the above fibroblast was treated with 40 nM of DiOC6 for 15 minutes. The results were measured by using Cary Eclipse Fluorescence Spectrophotometer (Varian, Calif., USA) and the excitation wavelength and emission wavelength were measured at 480 nm and 520 nm, respectively.
The change of membrane potential (Δψm) of mitochondria was measured by using a cationic dye, DiOC6 that is a specific fluorescent material for mitochondria. An aspect of the change was measured by using Fluorescence Spectrophotometer. The cell was cultured in 40 nM DiQC6 for 15 minutes and then the fluorescent material that was left was removed by using PBS. The analysis was performed by using Cary Eclipse fluorescence spectrophotometer (Varian, Calif., USA), and then the excitation wavelength was measured at 480 nm, and the emission wavelength was measured at 520 nm.

mitochondria complex V = assay: Western blot of mitochondria complex V amount in C. elegans; type: in vivo; conditions: C. elegans treated with DDS; FIG. 8
Experimental: C. elegans was isolated and collected by using dense sucrose (Centrifugation) and was washed with S buffer solution to remove a contaminant. In order to isolate mitochondria, C. elegans was twice homogenized in MSM buffer solution (220 mM mannitol, 10 mM sucrose, 5 mM MOPS, pH 7.4, with KOH) containing 0.2% of BSA at 5000 rpm for 20 seconds by using Precellys24 Homogenizer (Medinova) and Glass bead. The residue and non-homogenized C. elegans were removed fro the homogenized C. elegans through a centrifuge (380 g, 5 min) by using MSM buffer solution. The precipitate of homogenous substance that was centrifuged at 4500 g for 5 minutes, i.e., mitochondria were prepared. The rest was prepared as a part of cytoplasm. […] The quantitation of protein was performed by using BCA protein detection kit (Pierce).
The lysates of C. elegans grown under appropriate condition (containing PABA alone or PABA and dapsone) were prepared. […] After transferring to a nitrocellulose, they were analyzed by using Western Blot using MS601 (subunit α of F1 of ATP synthase, Oxphos Complexes detection kit, Mitoscience, 1:1,000) and α-Tubulin (Sigma; 1:2,000) antibody. The result was detected by using ECL (Pierce) and a horseradish peroxidase-conjugated secondary antibody.

ceDuox1 = assay: RT-PCR of ceDuox1 mRNA in worms; type: in vivo, C. elegans; conditions: worms treated with DDS; FIG. 13
Experimental: Total RNA was isolated by using TRI reagent available from MRC Company and first cDNA strain was synthesized by using Oligo-dT and Superscript II Reverse Transcriptase (available from Invitrogen Company). The gene amplification (PCR) was performed by using PCR Master Mix (Genenmed) and as the base sequence of the primer, ceDuox1; 5′-[…]-3′ (Forward Primer) and 5′-[…]-3′ (Reverse Primer), actin 5′-[…]-3′ (Forward Primer) and 5′-[…]-3′ (Reverse Primer) were used.

SMILES: Nc1ccc(S(=O)(=O)c2ccc(N)cc2)cc1 [DDS, 4,4′-diaminodiphenylsulfone]
- production of superoxide anion in the mitochondria [1]: suppresses
- amount of calcium increased by PQ (calcium): decreases
- IC50 (human diploid fibroblast): ~745 µM
- decrease of membrane potential induced by PQ [2]: meaningfully maintained
- amount of complex V (mitochondria complex V): significantly decreased
- amounts of mRNA of C. elegans NOX, ceDuox (ceDuox1): significantly decreased
